These results are taken from patent US20200054541A1, “METHODS FOR REDUCING SWEAT AND/OR BODY ODOR, USING P[…] WITH AMINE AND/OR HYDROXYL GROUPS” (Henkel AG & Co. KGaA, priority 2017, published 2020).

The assay relates to backs of 16 test persons. Description: In vivo test for antiperspirant activity (sauna sweat test, gravimetric). Particulars: 5.0% by weight aqueous solution, 75 μL applied on the back on four consecutive days; measured 24 h after last application; about 15 minutes at 80° C. in the sauna; gravimetric vs untreated site; 16 subjects. Set-up: species or system human. Here is the method: 1. In Vivo Test for Antiperspirant Activity
To determine the antiperspirant effect, an antiperspirant study was performed on the backs of 16 test persons. A 5.0% by weight aqueous solution of a phosphonate compound of the Formula (I) with a=b=1, R=*—(CH2)x—PO3X^+Y^+ group where x=1 and X^+=Y^+=hydrogen or Na^+ was prepared for this purpose.
75 μL of the prepared solution were applied on the back of 16 subjects on one side next to the spine. After 5 minutes, the treated sites were covered with occlusive non-adsorbent film. These non-adsorbent pads were removed after 2 hours. The compositions were each applied to the backs of the subjects for four consecutive days in the manner previously described. 24 h after the last application of the composition, absorbent pads were applied to the backs of the subjects at the sites where the compositions were previously applied. Furthermore, pads, which served as a control, were also applied on the other side of the spine at the same height. After the subjects had sweat for about 15 minutes at 80° C. in the sauna, the amount of perspiration absorbed by the pads was determined gravimetrically, wherein each composition was compared with the corresponding untreated site on the back. The sweat reduction was determined from the gravimetric determination of the amount of sweat, wherein all determined values were statistically significant.

In turn, `O=P(O)(O)CN(CP(=O)(O)O)CP(=O)(O)O` [phosphonate compound of Formula (I), aminotrimethylene phosphonate] showed a sweat reduction of 10.1%.
